Measurements published in patent publication US4732977A, “Carbapenem antibiotics” (priority 1986, dated 1988).
In brackets after ≈: the same amount, converted by molar mass. Read-outs that look alike come from different tables or passages of the source. One block for each compound: values may come before it.

Tests used:
E. coli A15119 = experiment: M.I.C., tube dilution; format: cell-based; conditions: overnight incubation at 37° C., Nutrient Broth
[1] = Blood levels in mice after intramuscular administration; conditions: for AUC / Cmax / half-life: 20 mg/kg;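 on all read-outs here: compounds dissolved in 0.1 M phosphate buffer at pH 7, data from one experiment using four mice for each compound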
Description: Compounds were solubilized in 0.1 M phosphate buffer pH 7.
a single test; 4 mice used per compound.
Compounds were solubilized in 0.1 M phosphate buffer, pH 7.
on a single test; 4 mice per compound.

S. aureus A-9537 = experiment: M.I.C., tube dilution; format: cell-based
E. coli A20341-1 = experiment: M.I.C., tube dilution; format: cell-based; conditions: Nutrient Broth
S. faecalis A20688 = experiment: M.I.C., tube dilution; format: cell-based; conditions: Nutrient Broth
P. aeruginosa A-9843A = experiment: M.I.C., tube dilution; format: cell-based; conditions: overnight incubation at 37° C., Nutrient Broth; listed as Ex. 15"C"
K. pneumoniae A20468 = experiment: M.I.C., tube dilution; format: cell-based; conditions: Nutrient Broth
P. vulgaris A21559 = experiment: M.I.C., tube dilution; format: cell-based; conditions: Nutrient Broth
P. aeruginosa A21213 = experiment: M.I.C., tube dilution; format: cell-based; conditions: Nutrient Broth
E. cloacae A-9656 = experiment: M.I.C., tube dilution; format: cell-based; conditions: Nutrient Broth
S. marcescens A20019 = experiment: M.I.C., tube dilution; format: cell-based; conditions: overnight incubation at 37° C., Nutrient Broth
K. pneumoniae A-9664 = experiment: M.I.C., tube dilution; format: cell-based; conditions: Nutrient Broth
S. pyogenes A-9604 = experiment: M.I.C., tube dilution; format: cell-based; conditions: overnight incubation at 37° C., Nutrient Broth; listed as Ex. 15"C"
P. morganii A15153 = experiment: M.I.C., tube dilution; format: cell-based; conditions: overnight incubation at 37° C.
P. mirabilis A-9900 = experiment: M.I.C., tube dilution; format: cell-based; conditions: Nutrient Broth
S. pneumoniae A-9585 = experiment: M.I.C., tube dilution; format: cell-based; conditions: overnight incubation at 37° C., Nutrient Broth
P. rettgeri A22424 = experiment: M.I.C., tube dilution; format: cell-based; conditions: overnight incubation at 37° C., Nutrient Broth
E. cloacae A-9659 = experiment: M.I.C., tube dilution; format: cell-based; conditions: overnight incubation at 37° C., Nutrient Broth
[2] = tested on: S. aureus A-9606 (Pen-res.); experiment: M.I.C., tube dilution; format: cell-based; conditions: overnight incubation at 37° C.
[3] = Half-life (stability) in buffer solution; format: physicochemical; conditions: 10^-4 M, (phosphate) buffer pH 7.4, 37° C.; read-out: half-life in solution (converted)
Experimental: T1/2 =9.8 h (measured at a concentration of 10^-4 M in phosphate buffer pH 7.4 at 36.8° C.).
UV (phosphate buffer, pH 7.4) λmax 294 nm (ε=8,202); T1/2 (phosphate buffer, pH 7.4, M=0.967, T=37° C.) 9.1 h.
(c of 10^-4 M in pH 7.4 phosphate buffer.
.tau.1/2 =20.8 h measured at 37° C. in buffer (pG 7.4) for a concentration of 10^-4 M.
.tau.1/2 =12.5 h measured at 37° C. in buffer pH 7.4 for a concentration of 10^-4 M.
h (measured for a concentration of 10^-4 M at 36.8° C. in buffer pH 7.4).
.tau.1/2 =26.0 h (measured for a concentration of 10^-4 M at 36.8° C. in buffer pH 7.4).
.tau.1/2 =16.6 h (measured at 36.8° C., pH 7.4 for a concentration of 10^-4 M) and (5R, 6S) 6-(1R-hydroxyethyl)7-oxo-3-[1,2,6-trimethylpyridinium-4-yl)methylthio]-1-azabicyclo[3.2.0 hept-2-ene-2-carboxylate, 0.010 g, 0.7%;
.tau.1/2 =11.6 h (measured for a concentration of 10^-4 M at 36.8° C. in buffer pH 7.4).
.tau.1/2 =13.4 h (measured for a concentration of 10^-4 M at 36.8° C. in buffer pH 7.4).
.tau.1/2 =14.4 h (measured for a concentration of 10^-4 M at 36.8° C. in buffer pH 7.4).
T 1/2: 10.2 h (biological buffer).
.tau.1/2 =10.2 h measured at 36.8° C. for a concentration of 10^-4 M in buffer pH 7.4.

[4] = overnight incubation at 37° C., listed as Ex. 15"C"
[5] = Escherichia coli, A15119, read-out: MIC
[6] = Escherichia coli, A203411, overnight incubation at 37° C., read-out: MIC
[7] = Enterococcus faecalis, A20688, overnight incubation at 37° C., read-out: MIC
[8] = Klebsiella pneumoniae, A20468, overnight incubation at 37° C., read-out: MIC
[9] = Proteus vulgaris, A21559, overnight incubation at 37° C., read-out: MIC
[10] = Pseudomonas aeruginosa, A21213, overnight incubation at 37° C., read-out: MIC
[11] = Enterobacter cloacae, A9656, overnight incubation at 37° C., read-out: MIC

Compound: C[C@@H](O)C1C(=O)N2C(C(=O)[O-])=C(SCc3cn(C)n[n+]3C)CC12 (stereo partly drawn) [Example 15 "C", 3-[4-(N,N-dimethyl-1,2,3-triazolium)methylthio]-6α-[1-(R)-hydroxyethyl]-7-oxo-1-azabicyclo(3.2.0)hept-2-ene-2-carboxylate]
MIC (E. coli A15119; listed as Ex. 15"C"): 0.06 µg/mL (≈ 0.177 µM) | T1/2 ([1]; mice, 20 mg/kg i.m. (table 9)): 10 min | AUC ([1]; mice, 20 mg/kg i.m. (table 9)): 7300 ng·h/mL | Cmax ([1]; mice, 20 mg/kg i.m. (table 9)): 15100 ng/mL | MIC (S. aureus A-9537; +50% serum, listed as Ex. 15"C"): 0.06 µg/mL (≈ 0.177 µM) | MIC (S. aureus A-9537; overnight incubation at 37° C., Nutrient Broth, listed as Ex. 15"C"): 0.016 µg/mL (≈ 0.0473 µM) | MIC (E. coli A20341-1; overnight incubation at 37° C.): 0.03 µg/mL (≈ 0.0887 µM) | MIC (S. faecalis A20688; overnight incubation at 37° C.): 0.5 µg/mL (≈ 1.48 µM) | MIC (P. aeruginosa A-9843A): 8 µg/mL (≈ 23.6 µM) | MIC (K. pneumoniae A20468; [4]): 0.13 µg/mL (≈ 0.384 µM) | MIC (P. vulgaris A21559; [4]): 0.06 µg/mL (≈ 0.177 µM) | MIC (P. aeruginosa A21213; [4]): 0.5 µg/mL (≈ 1.48 µM) | MIC (E. cloacae A-9656; [4]): 0.13 µg/mL (≈ 0.384 µM) | MIC (S. marcescens A20019; listed as Ex. 15"C"): 0.13 µg/mL (≈ 0.384 µM) | MIC (K. pneumoniae A-9664; [4]): 0.06 µg/mL (≈ 0.177 µM) | MIC (S. pyogenes A-9604): 0.0003 µg/mL (≈ 0.000887 µM) | MIC (P. morganii A15153; printed M. morganii A15153, listed as Ex. 15"C"): 0.25 µg/mL (≈ 0.739 µM) | MIC (P. mirabilis A-9900; [4]): 0.06 µg/mL (≈ 0.177 µM) | MIC (S. pneumoniae A-9585): 0.0005 µg/mL (≈ 0.00148 µM) | MIC (P. rettgeri A22424; listed as Ex. 15"C"): 0.25 µg/mL (≈ 0.739 µM) | MIC (E. cloacae A-9659; listed as Ex. 15"C"): 0.13 µg/mL (≈ 0.384 µM) | MIC [2]: 0.03 µg/mL (≈ 0.0887 µM)

MIC (E. coli A15119; [5]): 0.6 µg/mL | AUC ([1]; mouse, blood, im): 3400 ng·h/mL | Cmax ([1]; mouse, blood, im): 11000 ng/mL | half-life ([1]; mouse, blood, im): 8 min | MIC (S. aureus A-9537; Staphylococcus aureus, A9537, +50% serum, read-out: MIC): 1 µg/mL | MIC (E. coli A20341-1; [6]): 0.6 µg/mL | MIC (S. faecalis A20688; [7]): 4 µg/mL | MIC (K. pneumoniae A20468; [8]): 0.5 µg/mL | MIC (P. vulgaris A21559; [9]): 0.13 µg/mL | MIC (P. aeruginosa A21213; [10]): 16 µg/mL | MIC (E. cloacae A-9656; [11]): 2 µg/mL | MIC (P. morganii A15153; Morganella morganii, A15153, printed M. morganii A15153, read-out: MIC): 0.5 µg/mL | MIC (P. rettgeri A22424; Providencia rettgeri, A22424, read-out: MIC): 2 µg/mL | MIC (E. cloacae A-9659; Enterobacter cloacae, A9659, read-out: MIC): 2 µg/mL | MIC ([2]; Staphylococcus aureus): 0.5 µg/mL
Compound: C[C@@H](O)[C@H]1C(=O)N2C(C(=O)[O-])=C(SCc3cn(C)n[n+]3CC(=O)O)C[C@H]12 [Example 17, Potassium 3-[5-(1-carboxylatomethyl-3-methyl-1,2,3-triazolium)-methanethio]-6α-[1-(R)-hydroxyethyl]-7-oxo-1-azabicyclo[3.2.0]hept-2-ene-2-carboxylate]

Compound: C[C@@H](O)[C@H]1C(=O)N2C(C(=O)[O-])=C(SCc3n[n+](C)nn3C)C[C@H]12 [Example 20, (1'R,5R,6S) 3-[(1,3-dimethyl-5-tetrazolium)-methylthio]-6-(1-hydroxyethyl)-7-oxo-1-azabicyclo[3.2.0]hept-2-ene-2-carboxylate]
MIC (E. coli A15119; [5]): 1 µg/mL (≈ 2.95 µM) | AUC ([1]; mouse, blood, im): 15600 ng·h/mL | Cmax ([1]; mouse, blood, im): 28400 ng/mL | half-life ([1]; mouse, blood, im): 14 min | MIC (S. aureus A-9537; Staphylococcus aureus, A9537, overnight incubation at 37° C., Nutrient Broth, read-out: MIC): 0.5 µg/mL (≈ 1.47 µM) | MIC (E. coli A20341-1; [6]): 2 µg/mL (≈ 5.89 µM) | MIC (S. faecalis A20688; [7]): 16 µg/mL (≈ 47.1 µM) | MIC (K. pneumoniae A20468; [8]): 4 µg/mL (≈ 11.8 µM) | MIC (P. vulgaris A21559; [9]): 4 µg/mL (≈ 11.8 µM) | MIC (P. aeruginosa A21213; [10]): 16 µg/mL (≈ 47.1 µM) | MIC (E. cloacae A-9656; [11]): 16 µg/mL (≈ 47.1 µM) | MIC (S. marcescens A20019; Serratia marcescens, A20019, read-out: MIC): 4 µg/mL (≈ 11.8 µM) | MIC (K. pneumoniae A-9664; Klebsiella pneumoniae, A9664, overnight incubation at 37° C., read-out: MIC): 4 µg/mL (≈ 11.8 µM) | half-life at 100 µM [3]: 630 min | MIC (P. mirabilis A-9900; Proteus mirabilis, A9900, overnight incubation at 37° C., read-out: MIC): 4 µg/mL (≈ 11.8 µM)
